Experiments:
[1] = system: Aβ40 in conditioned medium of cells stably expressing Amyloid Precursor Protein (APP); assay: In vitro BACE cell-based assay (Aβ40 in conditioned medium, sandwich ELISA); details: Homo sapiens, HEK293, average IC50; read-out: HEK cell assay
In short: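 Secreted Aβ40 is captured with pAb40 and detected with biotinylated 6E10, read by europium time-resolved fluorescence. IC50 comes from percent inhibition versus concentration.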

[2] = target: Beta Secretase enzyme (BACE) (Homo sapiens, UniProt P56817); assay: In vitro enzymatic BACE FRET (fluorescence resonance energy transfer) assay; assay type: biochemical; details: average IC50, enzyme assay; read-out: BACE 1 FRET assay
Sequence of Beta Secretase enzyme (BACE) (P56817 46-501, species assumed): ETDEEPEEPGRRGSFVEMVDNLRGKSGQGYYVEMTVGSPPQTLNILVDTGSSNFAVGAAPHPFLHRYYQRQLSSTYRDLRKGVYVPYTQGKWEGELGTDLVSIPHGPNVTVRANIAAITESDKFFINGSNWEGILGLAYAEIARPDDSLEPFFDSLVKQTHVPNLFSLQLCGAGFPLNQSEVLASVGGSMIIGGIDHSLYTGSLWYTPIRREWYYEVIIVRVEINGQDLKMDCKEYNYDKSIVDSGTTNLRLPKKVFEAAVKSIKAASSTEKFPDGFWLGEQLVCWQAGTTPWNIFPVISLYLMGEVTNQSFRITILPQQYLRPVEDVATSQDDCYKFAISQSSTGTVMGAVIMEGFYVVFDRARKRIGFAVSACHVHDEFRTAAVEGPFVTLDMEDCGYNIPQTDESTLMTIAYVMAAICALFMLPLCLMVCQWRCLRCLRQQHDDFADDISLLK
In short: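 Enzyme activity was measured at pH 4.2 (0.05 M acetate, 10% DMSO final, 100 uM genapol) by cleavage of a 50 nM quenched fluorogenic peptide. After one hour, Tris was added to neutralise the pH and fluorescence was recorded.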

SMILES	IC50 [1] [nM]	IC50 [2] [nM]
NC1=N[C@@]2(CO1)c1cc(I)ccc1Oc1ncc(Br)cc12 [Example 1016, (5S)-3-bromo-7-iodospiro[chromeno[2,3-b]pyridine-5,4′-[1,3]oxazol]-2′-amine]	12	0.7
NC1=N[C@]2(CO1)c1cc(I)ccc1Oc1ncc(Br)cc12 [Example 1017, (5R)-3-bromo-7-iodospiro[chromeno[2,3-b]pyridine-5,4′-[1,3]oxazol]-2′-amine]	886	27600
NC1=N[C@@]2(CO1)c1cc(-c3cccnc3F)ccc1Oc1ncc(Br)cc12 [Example 1018, (5S)-3-bromo-7-(2-fluoro-3-pyridinyl)spiro[chromeno[2,3-b]pyridine-5,4′-[1,3]oxazol]-2′-amine]	563	577
Cc1ccnn1-c1cnc2c(c1)[C@]1(COC(N)=N1)c1cc(-c3cccnc3F)ccc1O2 [Example 1020, (5S)-7-(2-fluoro-3-pyridinyl)-3-(5-methyl-1H-pyrazol-1-yl)spiro[chromeno[2,3-b]pyridine-5,4′-[1,3]oxazol]-2′-amine]	851	16.5
Cc1ccn(-c2cnc3c(c2)[C@]2(COC(N)=N2)c2cc(-c4cccnc4F)ccc2O3)n1 [Example 1021, (5S)-7-(2-fluoro-3-pyridinyl)-3-(3-methyl-1H-pyrazol-1-yl)spiro[chromeno[2,3-b]pyridine-5,4′-[1,3]oxazol]-2′-amine]	119	3.5
Cc1ccn(-c2cnc3c(c2)[C@]2(COC(N)=N2)c2cc(-c4cccnc4)ccc2O3)n1 [Example 1022, (5S)-3-(3-methyl-1H-pyrazol-1-yl)-7-(3-pyridinyl)spiro[chromeno[2,3-b]pyridine-5,4′-[1,3]oxazol]-2′-amine]	106	7.2
NC1=N[C@@]2(CS1)c1cc(-c3c(F)ccnc3F)ccc1Oc1cnc(-c3ccnc(F)c3)cc12 [Example 1023, (5S)-7-(2,4-difluoro-3-pyridinyl)-3-(2-fluoro-4-pyridinyl)spiro[chromeno[2,3-c]pyridine-5,4′-[1,3]thiazol]-2′-amine]	18	0.4
NC1=N[C@@]2(CS1)c1cc(-c3cccnc3F)ccc1Oc1c2cc(Cl)nc1F [Example 1024, (5S)-3-chloro-1-fluoro-7-(2-fluoro-3-pyridinyl)spiro[chromeno[2,3-c]pyridine-5,4′-[1,3]thiazol]-2′-amine]	1440	6.6
NC1=N[C@@]2(CS1)c1cc(-c3cccnc3F)ccc1Oc1c2cc(-c2cccnc2F)nc1F [Example 1025, (5S)-1-fluoro-3,7-bis(2-fluoro-3-pyridinyl)spiro[chromeno[2,3-c]pyridine-5,4′-[1,3]thiazol]-2′-amine]	141	1
NC1=N[C@@]2(CS1)c1cc(-c3cccnc3F)ccc1Oc1c2cc(C2=CCCCO2)nc1F [Example 1026, (5S)-3-(3,4-dihydro-2H-pyran-6-yl)-1-fluoro-7-(2-fluoro-3-pyridinyl)spiro[chromeno[2,3-c]pyridine-5,4′-[1,3]thiazol]-2′-amine]	11	0.2
NC1=N[C@@]2(CS1)c1cc(-c3cccnc3F)ccc1Oc1c2cc(-c2ccncc2)nc1F [Example 1027, (5S)-1-fluoro-7-(2-fluoro-3-pyridinyl)-3-(4-pyridinyl)spiro[chromeno[2,3-c]pyridine-5,4′-[1,3]thiazol]-2′-amine]	14	0.4
NC1=N[C@@]2(CS1)c1cc(-c3cccnc3F)ccc1Oc1c2cc(C2=CCCOC2)nc1F [Example 1028, (S)-3-(5,6-dihydro-2H-pyran-3-yl)-1-fluoro-7-(2-fluoropyridin-3-yl)-5′H-spiro[chromeno[2,3-c]pyridine-5,4′-thiazol]-2′-amine]	3	0.2
NC1=N[C@@]2(CS1)c1cc(-c3cccnc3)ccc1Oc1c2cc(-c2ccnc(F)c2)nc1F [Example 1030, (5S)-1-fluoro-3-(2-fluoro-4-pyridinyl)-7-(3-pyridinyl)spiro[chromeno[2,3-c]pyridine-5,4′-[1,3]thiazol]-2′-amine]	5	0.2
NC1=N[C@@]2(CS1)c1cc(-c3cccnc3)ccc1Oc1c2cc(-c2cccnc2)nc1F [Example 1031, (5S)-1-fluoro-3,7-di-3-pyridinylspiro[chromeno[2,3-c]pyridine-5,4′-[1,3]thiazol]-2′-amine]	3	0.3
CC1(C)CC(c2cc3c(c(F)n2)Oc2ccc(-c4cccnc4F)cc2[C@@]32CSC(N)=N2)=CCO1 [Example 1034, (5S)-3-(2,2-dimethyl-3,6-dihydro-2H-pyran-4-yl)-1-fluoro-7-(2-fluoro-3-pyridinyl)spiro[chromeno[2,3-c]pyridine-5,4′-[1,3]thiazol]-2′-amine]	5	0.7
CC1(C)C=C(c2cc3c(c(F)n2)Oc2ccc(-c4cccnc4F)cc2[C@]32CSC(N)=N2)CCO1 [Example 1035, (5R)-3-(6,6-dimethyl-3,6-dihydro-2H-pyran-4-yl)-1-fluoro-7-(2-fluoro-3-pyridinyl)spiro[chromeno[2,3-c]pyridine-5,4′-[1,3]thiazol]-2′-amine]	14	1.3
CC1(C)CC(c2cc3c(c(F)n2)Oc2ccc(-c4cccnc4F)cc2[C@]32CSC(N)=N2)=CCO1 [Example 1036, (5R)-3-(2,2-dimethyl-3,6-dihydro-2H-pyran-4-yl)-1-fluoro-7-(2-fluoro-3-pyridinyl)spiro[chromeno[2,3-c]pyridine-5,4′-[1,3]thiazol]-2′-amine]	120	2
NC1=N[C@@]2(CO1)c1cc(-c3cncnc3)c(F)cc1Oc1c(F)cc(C3=CCOCC3)cc12 [Example 1038, (4S)-7′-(3,6-dihydro-2H-pyran-4-yl)-3′,5′-difluoro-2′-(5-pyrimidinyl)spiro[1,3-oxazole-4,9′-xanthen]-2-amine]	10	0.4
NC1=N[C@@]2(CO1)c1cc(-c3cncnc3)c(F)cc1Oc1c(F)cc(C3=CCCOC3)cc12 [Example 1039, (4S)-7′-(5,6-dihydro-2H-pyran-3-yl)-3′,5′-difluoro-2′-(5-pyrimidinyl)spiro[1,3-oxazole-4,9′-xanthen]-2-amine]	8	0.4
NC1=N[C@@]2(CO1)c1cc(-c3cncnc3)c(F)cc1Oc1c(F)cc(C3CCOCC3)cc12 [Example 1040, (4S)-3′,5′-difluoro-2′-(5-pyrimidinyl)-7′-(tetrahydro-2H-pyran-4-yl)spiro[1,3-oxazole-4,9′-xanthen]-2-amine]	30	1.5
NC1=N[C@@]2(CO1)c1cc(C3=CCOCC3)cc(F)c1Oc1ccc(-c3cncnc3)c(F)c12 [Example 1041, (4S)-7′-(3,6-dihydro-2H-pyran-4-yl)-1′,5′-difluoro-2′-(5-pyrimidinyl)spiro[1,3-oxazole-4,9′-xanthen]-2-amine]	≥ 10000	3590
NC1=N[C@]2(CO1)c1cc(C3=CCOCC3)cc(F)c1Oc1ccc(-c3cncnc3)c(F)c12 [Example 1042, (4R)-7′-(3,6-dihydro-2H-pyran-4-yl)-1′,5′-difluoro-2′-(5-pyrimidinyl)spiro[1,3-oxazole-4,9′-xanthen]-2-amine]	117	13.5
NC1=N[C@@]2(CO1)c1cc(-c3cccnc3F)ccc1Oc1c(F)cc(OCCF)cc12 [Example 1043, (4S)-4′-fluoro-2′-(2-fluoroethoxy)-7′-(2-fluoro-3-pyridinyl)spiro[1,3-oxazole-4,9′-xanthen]-2-amine]	57	1
NC1=N[C@@]2(CO1)c1cc(-c3cnccc3F)ccc1Oc1c(F)cc(C3=CCOCC3)cc12 [Example 1044, (4S)-2′-(3,6-dihydro-2H-pyran-4-yl)-4′-fluoro-7′-(4-fluoro-3-pyridinyl)spiro[1,3-oxazole-4,9′-xanthen]-2-amine]	18	0.5
NC1=N[C@@]2(CO1)c1cc(-c3cnccc3F)ccc1Oc1c(F)cc(C3=CCCOC3)cc12 [Example 1045, (4S)-2′-(5,6-dihydro-2H-pyran-3-yl)-4′-fluoro-7′-(4-fluoro-3-pyridinyl)spiro[1,3-oxazole-4,9′-xanthen]-2-amine]	12	0.6
NC1=N[C@]2(CO1)c1cc(C3=CCOCC3)cc(F)c1Oc1ccc(-c3cccnc3)c(F)c12 [Example 1046, (4R)-7′-(3,6-dihydro-2H-pyran-4-yl)-1′,5′-difluoro-2′-(3-pyridinyl)spiro[1,3-oxazole-4,9′-xanthen]-2-amine]	209	21.2
NC1=N[C@]2(CO1)c1cc(C3=CCOCC3)cc(F)c1Oc1ccc(-c3cccnc3F)c(F)c12 [Example 1047, (4R)-7′-(3,6-dihydro-2H-pyran-4-yl)-1′,5′-difluoro-2′-(2-fluoro-3-pyridinyl)spiro[1,3-oxazole-4,9′-xanthen]-2-amine]	95	4.6
NC1=N[C@]2(CO1)c1cc(C3=CCCOC3)cc(F)c1Oc1ccc(-c3cccnc3F)c(F)c12 [Example 1048, (4R)-7′-(5,6-dihydro-2H-pyran-3-yl)-1′,5′-difluoro-2′-(2-fluoro-3-pyridinyl)spiro[1,3-oxazole-4,9′-xanthen]-2-amine]	36	3.9
NC1=N[C@]2(CO1)c1cc(C3=CCCOC3)cc(F)c1Oc1ccc(-c3cncnc3)c(F)c12 [Example 1049, (4R)-7′-(5,6-dihydro-2H-pyran-3-yl)-1′,5′-difluoro-2′-(5-pyrimidinyl)spiro[1,3-oxazole-4,9′-xanthen]-2-amine]	85	15.6
NC1=N[C@]2(CO1)c1cc(N3CC[C@@H](F)C3)cc(F)c1Oc1ccc(-c3cncnc3)c(F)c12 [Example 1052, (4R)-1′,5′-difluoro-7′-((3R)-3-fluoro-1-pyrrolidinyl)-2′-(5-pyrimidinyl)spiro[1,3-oxazole-4,9′-xanthen]-2-amine]	67	38.3
